Experimental data as given in patent US11547722B2, “Bactericides and antifungal agents” (priority 2017, dated 2023).
Converted amounts (≈) assume the structure as drawn. Read-outs that look alike come from different tables or passages of the source.

Experiments:
[1] = test system: MSSA (Meticillin Sensitive Staphylococcus aureus, ATCC 29213); test: MIC test on MSSA bacteria (serial two-fold dilution, 96-well plate)
[2] = test system: MRSA (Meticillin Resistant Staphylococcus aureus, ATCC 43300); test: MIC test on MRSA bacteria (serial two-fold dilution, 96-well plate)
[3] = Aqueous solubility of metal sulfides without and with solubilizing additive
Procedure: Mix the 90 mL of the SO4Cu solution with 10 mL of the Na2S solution. […] Separate it by filtration.
Place this precipitate in 100 mL of water in a stirred container.
With constant stirring, drop a very concentrated solution of NH3 into the water very slowly.
Mix the 97 mL of the NO3Ag solution with 3 mL of the Na2S solution. […] Separate it by filtration.
With constant stirring, drop very slowly a concentrated solution of ammonium citrate (NH4)5(C6H4O7)2H3.
Dissolve 77 mg of Cl3Au in 95 mL of water. Mix the 95 mL of the Cl3Au solution with 5 mL of the Na2S solution. […] Separate it by filtration.
While stirring constantly, drop a very concentrated solution of potassium dichromate very slowly.

[4] = aqueous solutions, 24 h at 37° C.

Cc1onc(-c2ccccc2)c1C(=O)N[C@@H]1C(=O)N2[C@@H]1SC(C)(C)[C@@H]2C(=O)O [Oxacilline, reference compound]
MIC ([1]; Staphylococcus aureus, 24 h, read-out: MIC MSSA): 0.25 µg/mL (≈ 0.623 µM) | MIC ([2]; Staphylococcus aureus, 24 h, read-out: MIC MRSA): 256 µg/mL (≈ 638 µM)

[Au+3].[Au+3].[S-2].[S-2].[S-2] [S3Au2, gold sulfide]
aqueous Au concentration reached ([3]; addition of potassium dichromate alone or an equimolar mixture of potassium dichromate and ammonia): at least 0.2 g/l | aqueous concentration in Au reached ([3]; addition of potassium dichromate, or potassium dichromate and ammonia, Example 3): at least 0.2 g.l^−1 | maximum concentration in aqueous solution ([3]; without additive): undetectable | maximum concentration in water ([3]; without additive, Examples 1 and 3): undetectable

O=S(=O)([O-])[O-].[Cu+2] [V, copper sulfate]
MIC MSSA [1, 4]: 78 µg/mL | MIC MRSA [2, 4]: 78 to 157 µg/mL

copper sulfide [SCu]
aqueous concentration in Cu reached [3]: at least 0.2 g.l^−1 | aqueous concentration of Cu reached [3]: ≥ 0.2 g/L | maximum concentration in aqueous solution [3]: 0.33 mg/L | maximum concentration in water [3]: 0.33 mg/L
